{"source": "patent US20260256738A1", "about": "“METHODS OF TREATING CANCER WITH A RAS MUTATION” (Immuneering Corporation, priority 2023, published 2026)", "key": {"[1]": {"assay": "Plasma Stability (% remaining @2 hour)", "format": "in vitro ADME", "conditions": "Human; 2 μM"}, "[2]": {"assay": "Microsome Stability (% remaining @1 hour)", "format": "in vitro ADME", "conditions": "Beagle Dog; 2 μM"}, "CYP450 2B6": {"molecular_target": "T1, CYP450 2B6 (Homo sapiens, UniProt P20813)", "T1 sequence (P20813 1-491)": "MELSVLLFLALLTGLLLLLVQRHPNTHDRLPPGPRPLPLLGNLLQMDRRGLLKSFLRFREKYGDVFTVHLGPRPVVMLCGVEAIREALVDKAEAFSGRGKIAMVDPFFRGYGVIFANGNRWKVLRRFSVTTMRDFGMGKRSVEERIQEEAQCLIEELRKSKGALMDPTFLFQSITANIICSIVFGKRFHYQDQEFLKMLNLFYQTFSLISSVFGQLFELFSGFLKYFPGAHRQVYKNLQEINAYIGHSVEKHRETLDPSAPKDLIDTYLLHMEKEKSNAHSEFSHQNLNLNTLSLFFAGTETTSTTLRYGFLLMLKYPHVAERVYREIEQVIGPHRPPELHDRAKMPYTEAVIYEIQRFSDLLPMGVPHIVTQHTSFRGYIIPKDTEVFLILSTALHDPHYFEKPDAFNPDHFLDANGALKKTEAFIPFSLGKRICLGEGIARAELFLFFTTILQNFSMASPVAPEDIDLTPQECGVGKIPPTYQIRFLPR", "assay": "CYP450 Panel", "format": "in vitro ADME", "conditions": "10 μM; substrate bupropion"}, "CYP450 2C8": {"molecular_target": "T2, CYP450 2C8 (Homo sapiens, UniProt P10632)", "T2 sequence (P10632 1-490)": "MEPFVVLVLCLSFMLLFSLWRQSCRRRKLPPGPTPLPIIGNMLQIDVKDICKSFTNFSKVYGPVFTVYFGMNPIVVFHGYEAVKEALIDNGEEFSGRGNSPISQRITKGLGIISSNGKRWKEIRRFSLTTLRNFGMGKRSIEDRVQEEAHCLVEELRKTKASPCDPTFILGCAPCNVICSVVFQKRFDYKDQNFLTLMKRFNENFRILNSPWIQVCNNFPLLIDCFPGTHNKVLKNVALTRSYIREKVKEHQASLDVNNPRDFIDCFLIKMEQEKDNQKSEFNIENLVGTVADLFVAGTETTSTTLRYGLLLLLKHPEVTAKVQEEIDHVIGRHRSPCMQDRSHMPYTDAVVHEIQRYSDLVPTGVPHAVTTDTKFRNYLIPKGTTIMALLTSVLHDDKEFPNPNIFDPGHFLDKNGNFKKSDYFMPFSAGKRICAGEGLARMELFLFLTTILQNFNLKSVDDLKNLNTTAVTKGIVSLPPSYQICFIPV", "assay": "CYP450 Panel", "format": "in vitro ADME", "conditions": "10 μM; substrate amodiaquine"}, "[3]": {"assay": "Microsome Stability (% remaining @1 hour)", "conditions": "CD-1 Mouse; 2 μM"}, "pERK in A549 (KRAS-G12S)": {"test_system": "pERK in A549 (KRAS-G12S)", "assay": "Cell-based pERK dose response / phospho-ERK screen in A549", "design": "species or system Human", "conditions": "for pERK: total ERK (% relative to vehicle): A549 (KRAS G12S), 10 μM for 2 hours", "procedure": "Materials and Methods: A549 or A375 cells were seeded in 6-well plates at an appropriate seeding density on day 0. On day 2 or 3, after checking the health and confluency of cells, the media was aspirated and replaced with 1 mL media containing a predetermined concentration of compound and incubated for 2 hours. After 2 hours, the media was aspirated, and the cells washed 2 times with cold PBS. Cells were lysed on ice, with 50 μL 1× CST lysis buffer+1 mM PMSF for 5 minutes. After 5 minutes, cells were removed using a scraper and transferred to cold 1.5 mL tubes, and centrifuged for 10 min, 4° C., 14,000×g. Supernatant was gently removed and snap frozen in liquid nitrogen. Protein concentration of the lysate was determined using Bradford Reagent (analyzed using SpectraMax M2E) and diluted to 1 mg/mL or pERK or 1.5 mg/mL for pMEK analysis. […] All dilutions were in Milk-free antibody diluent."}, "[4]": {"assay": "Plasma Stability (% remaining @2 hour)", "format": "in vitro ADME", "conditions": "Beagle Dog; 2 μM"}, "[5]": {"assay": "Microsome Stability (% remaining @1 hour)", "format": "in vitro ADME", "conditions": "Human; 2 μM"}, "Caco-2": {"test_system": "Caco-2", "assay": "Caco-2 permeability", "conditions": "10 μM, 2 hrs"}, "[6]": {"assay": "eLogD (lipophilicity; pH=7.4)", "format": "physicochemical", "procedure": "Test compounds were dissolved in DMSO at a concentration of 10 mM and further diluted with methanol:water 1:1. Samples were analyzed using gradient HPLC with three different isocratic mobile phases of 0.25% octanol in methanol (60, 65 and 70%) and 20 mM MOPS buffer (pH 7.4) with decylamine. If needed, (for low E log Doct compounds) the isocratic mobile phases were adjusted to e.g. 40, 45 and 50% methanol. Peaks were detected using a diode array at absorbance 220-320 nm.\nCapacity factors data (k′_(tr−_t0)/t0) obtained at various amounts of methanol were extrapolated to 0% methanol and k′w values are determined using a linear procedure. E log Doct (7.4) is calculated using a series of reference standards with known Log D values. Each experiment was performed in triplicate."}, "CYP450 2D6": {"molecular_target": "CYP450 2D6 (Homo sapiens, UniProt P10635)", "sequence (P10635 whole entry)": "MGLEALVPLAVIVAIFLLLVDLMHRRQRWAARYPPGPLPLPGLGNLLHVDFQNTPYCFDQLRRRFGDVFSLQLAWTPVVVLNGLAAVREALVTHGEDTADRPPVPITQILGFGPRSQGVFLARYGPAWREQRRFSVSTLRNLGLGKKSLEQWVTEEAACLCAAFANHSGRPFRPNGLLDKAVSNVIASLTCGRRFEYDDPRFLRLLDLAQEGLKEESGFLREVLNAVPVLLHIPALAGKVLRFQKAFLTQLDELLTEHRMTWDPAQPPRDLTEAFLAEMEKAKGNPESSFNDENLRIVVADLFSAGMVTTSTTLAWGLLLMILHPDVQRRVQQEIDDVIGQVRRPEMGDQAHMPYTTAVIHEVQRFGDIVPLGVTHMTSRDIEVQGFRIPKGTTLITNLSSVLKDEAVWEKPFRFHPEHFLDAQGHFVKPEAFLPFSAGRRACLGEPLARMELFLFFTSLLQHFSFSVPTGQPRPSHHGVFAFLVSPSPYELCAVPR", "assay": "CYP450 Panel", "conditions": "10 μM; substrate dextromethorphan; in % (unit assumed)"}, "CYP450 2C9": {"molecular_target": "CYP450 2C9 (Homo sapiens, UniProt P11712)", "sequence (P11712 whole entry)": "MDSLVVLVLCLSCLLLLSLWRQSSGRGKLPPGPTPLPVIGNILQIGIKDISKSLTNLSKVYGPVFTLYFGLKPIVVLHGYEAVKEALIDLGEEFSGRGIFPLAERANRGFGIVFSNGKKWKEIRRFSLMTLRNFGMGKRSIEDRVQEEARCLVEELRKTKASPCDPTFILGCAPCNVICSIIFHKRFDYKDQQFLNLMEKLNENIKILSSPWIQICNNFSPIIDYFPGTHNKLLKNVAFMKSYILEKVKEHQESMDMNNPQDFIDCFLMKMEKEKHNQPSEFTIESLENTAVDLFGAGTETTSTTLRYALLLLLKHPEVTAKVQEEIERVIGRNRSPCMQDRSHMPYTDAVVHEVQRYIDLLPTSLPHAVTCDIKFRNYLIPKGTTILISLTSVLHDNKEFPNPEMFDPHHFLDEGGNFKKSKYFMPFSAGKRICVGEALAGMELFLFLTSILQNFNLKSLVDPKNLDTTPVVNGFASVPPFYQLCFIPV", "assay": "CYP450 Panel", "format": "in vitro ADME", "conditions": "10 μM; substrate Diclofenac; in % (unit assumed)"}, "CYP450 2C19": {"molecular_target": "CYP450 2C19 (Homo sapiens, UniProt P33261)", "sequence (P33261 whole entry)": "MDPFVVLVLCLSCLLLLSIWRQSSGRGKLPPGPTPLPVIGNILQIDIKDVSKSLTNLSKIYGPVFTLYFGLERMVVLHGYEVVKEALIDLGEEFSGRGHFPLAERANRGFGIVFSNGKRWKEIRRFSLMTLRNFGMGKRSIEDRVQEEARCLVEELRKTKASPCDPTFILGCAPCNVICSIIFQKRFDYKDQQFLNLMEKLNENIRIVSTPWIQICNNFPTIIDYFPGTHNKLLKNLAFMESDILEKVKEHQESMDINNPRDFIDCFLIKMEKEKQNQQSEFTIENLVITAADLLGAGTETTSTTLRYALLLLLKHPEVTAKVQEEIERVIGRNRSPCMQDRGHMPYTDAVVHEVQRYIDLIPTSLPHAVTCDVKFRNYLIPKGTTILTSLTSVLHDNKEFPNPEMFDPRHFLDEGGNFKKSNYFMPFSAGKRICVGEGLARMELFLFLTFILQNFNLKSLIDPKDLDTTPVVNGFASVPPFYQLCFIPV", "assay": "CYP450 Panel", "format": "in vitro ADME", "conditions": "10 μM; substrate mephenytoin; in % (unit assumed)"}, "[7]": {"assay": "Microsome Stability (% remaining @1 hour)", "format": "in vitro ADME", "conditions": "SD Rat; 2 μM"}, "hERG Channel": {"molecular_target": "hERG Channel (Homo sapiens, UniProt Q12809)", "sequence (Q12809 whole entry)": "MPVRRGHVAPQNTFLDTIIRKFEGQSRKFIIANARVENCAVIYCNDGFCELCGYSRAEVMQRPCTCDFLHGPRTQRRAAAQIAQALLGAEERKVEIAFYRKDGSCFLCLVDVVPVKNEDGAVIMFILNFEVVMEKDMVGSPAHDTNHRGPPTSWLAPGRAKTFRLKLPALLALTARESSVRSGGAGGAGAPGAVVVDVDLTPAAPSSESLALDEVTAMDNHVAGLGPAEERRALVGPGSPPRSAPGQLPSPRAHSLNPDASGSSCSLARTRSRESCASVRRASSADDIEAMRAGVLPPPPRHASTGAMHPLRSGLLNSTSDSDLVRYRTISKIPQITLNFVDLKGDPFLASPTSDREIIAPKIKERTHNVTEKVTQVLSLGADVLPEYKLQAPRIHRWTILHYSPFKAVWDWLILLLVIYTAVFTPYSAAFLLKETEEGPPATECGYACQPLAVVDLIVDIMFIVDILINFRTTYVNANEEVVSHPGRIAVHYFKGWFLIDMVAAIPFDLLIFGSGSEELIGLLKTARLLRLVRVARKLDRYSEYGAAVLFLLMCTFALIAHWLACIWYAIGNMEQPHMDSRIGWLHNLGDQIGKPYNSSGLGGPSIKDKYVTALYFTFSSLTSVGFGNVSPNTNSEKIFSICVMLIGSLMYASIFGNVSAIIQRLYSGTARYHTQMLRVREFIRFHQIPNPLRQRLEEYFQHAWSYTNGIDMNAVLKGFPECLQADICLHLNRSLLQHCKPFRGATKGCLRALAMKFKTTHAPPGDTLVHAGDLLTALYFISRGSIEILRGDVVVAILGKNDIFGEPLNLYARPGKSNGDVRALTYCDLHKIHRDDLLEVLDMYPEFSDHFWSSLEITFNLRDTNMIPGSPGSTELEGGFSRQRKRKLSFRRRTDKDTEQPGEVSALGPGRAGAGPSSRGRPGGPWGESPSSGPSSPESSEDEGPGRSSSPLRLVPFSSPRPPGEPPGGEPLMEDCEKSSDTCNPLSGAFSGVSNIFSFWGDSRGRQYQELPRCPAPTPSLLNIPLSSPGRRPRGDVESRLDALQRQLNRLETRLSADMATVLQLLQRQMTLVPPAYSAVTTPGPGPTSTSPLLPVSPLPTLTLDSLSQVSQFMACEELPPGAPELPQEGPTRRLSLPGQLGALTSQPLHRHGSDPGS", "assay": "biochemical"}}}
{"smiles": "CNS(=O)(=O)Nc1cccc(Cc2c(CN(C)C)c3ccc(OC(=O)N(C)C)cc3oc2=O)c1F", "note": "[Compound A, 4-((dimethylamino)methyl)-3-(2-fluoro-3-((N-methylsulfamoyl)amino)benzyl)-2-oxo-2H-chromen-7-yl dimethylcarbamate]", "values": [{"measurement": "Plasma stability, % Remaining @2 hour", "setting": "[1]", "result": 95.1, "unit": "%"}, {"measurement": "Microsome stability, % Remaining @1 hour", "setting": "[2]", "result": 76.5, "unit": "%"}, {"measurement": "CYP450 Panel 2B6", "setting": "CYP450 2B6", "result": 14.8, "unit": "%"}, {"measurement": "CYP450 Panel 2C8", "setting": "CYP450 2C8", "result": 4, "unit": "%"}, {"measurement": "Microsome stability, % Remaining @1 hour", "setting": "[3]", "result": 54.3, "unit": "%"}, {"measurement": "IC50", "setting": "pERK in A549 (KRAS-G12S); Homo sapiens, A549, 2 hr incubation, read-out: pERK IC50 (A549) [12-point dose]", "result": 0.0198, "unit": "µM"}, {"measurement": "Plasma stability, % Remaining @2 hour", "setting": "[4]", "result": 96.8, "unit": "%"}, {"measurement": "Microsome stability, % Remaining @1 hour", "setting": "[5]", "result": 51.7, "unit": "%"}, {"measurement": "A − B Permeability Ranking", "setting": "Caco-2", "result": "High"}, {"measurement": "Mean Papp A − B", "setting": "Caco-2", "result": "13.0 10^−6 cm/s"}, {"measurement": "Mean Papp B − A", "setting": "Caco-2", "result": "21.0 10^−6 cm/s"}, {"measurement": "chromatographic logD", "setting": "[6]", "result": 3}, {"measurement": "eLogD (lipophilicity; pH = 7.4)", "setting": "[6]", "result": 3.0}, {"measurement": "CYP450 Panel 2D6", "setting": "CYP450 2D6", "result": "−3.7"}, {"measurement": "CYP450 Panel 2C9", "setting": "CYP450 2C9", "result": 6.8}, {"measurement": "CYP450 Panel 2C19", "setting": "CYP450 2C19", "result": 8.2}, {"measurement": "Microsome stability, % Remaining @1 hour", "setting": "[7]", "result": 28.8, "unit": "%"}, {"measurement": "IC50", "setting": "hERG Channel", "result": 26.2, "unit": "µM"}]}
{"smiles": "Cn1cnc2c(F)c(Nc3ccc(Br)cc3Cl)c(C(=O)NOCCO)cc21", "note": "[Reference 1, Selumetinib]", "values": [{"measurement": "Plasma stability, % Remaining @2 hour", "setting": "[1]", "result": 98.1, "unit": "%"}, {"measurement": "Microsome stability, % Remaining @1 hour", "setting": "[2]", "result": 97.5, "unit": "%"}, {"measurement": "CYP450 Panel 2B6", "setting": "CYP450 2B6", "result": 30.2, "unit": "%"}, {"measurement": "CYP450 Panel 2C8", "setting": "CYP450 2C8", "result": 18.9, "unit": "%"}, {"measurement": "Microsome stability, % Remaining @1 hour", "setting": "[3]", "result": 13.9, "unit": "%"}, {"measurement": "pERK: total ERK (% relative to vehicle)", "setting": "pERK in A549 (KRAS-G12S); Table 8A", "result": 0.48, "unit": "%"}, {"measurement": "pERK: total ERK (% relative to vehicle)", "setting": "pERK in A549 (KRAS-G12S); Table 8B", "result": 2.40, "unit": "%"}, {"measurement": "Plasma stability, % Remaining @2 hour", "setting": "[4]", "result": 100.4, "unit": "%"}, {"measurement": "Microsome stability, % Remaining @1 hour", "setting": "[5]", "result": 75.8, "unit": "%"}, {"measurement": "A − B Permeability Ranking", "setting": "Caco-2", "result": "High"}, {"measurement": "eLogD (lipophilicity; pH = 7.4)", "setting": "[6]", "result": 3.6}, {"measurement": "CYP450 Panel 2D6", "setting": "CYP450 2D6", "result": 5.0}, {"measurement": "CYP450 Panel 2C9", "setting": "CYP450 2C9", "result": 14.1}, {"measurement": "CYP450 Panel 2C19", "setting": "CYP450 2C19", "result": 13.9}, {"measurement": "Microsome stability, % Remaining @1 hour", "setting": "[7]", "result": 54.6, "unit": "%"}, {"measurement": "IC50", "setting": "hERG Channel", "result": "> 30", "unit": "µM"}]}
